Assay results from ChEMBL document CHEMBL1158932, “Cytotoxic pyridone alkaloids from the leaves of Piper aborescens” (1990).
Values after ≈ are worked out from the molar mass of the structure shown.

Legend:
Type in all cases: functional
A549 = test: Cytotoxicity against human A549 cells after 6 days by MTT assay; conditions: A549, 144 h, read-out: ED50 (the source's name)
HT-29 = test: Cytotoxicity against human HT-29 cells after 6 days by MTT assay; conditions: HT-29, 144 h, read-out: ED50 (the source's name)
KB = test: Cytotoxicity against human KB cells after 3 days by MTT assay; conditions: 72 h, read-out: ED50 (the source's name)
P388 = test: Cytotoxicity against mouse P388 cells after 3 days by MTT assay; conditions: P388, 72 h, read-out: ED50 (the source's name)

Row | SMILES | EC50 (A549) | EC50 (HT-29) | EC50 (KB) | EC50 (P388)
1 | COc1cc(C2C(C(=O)N3CCC=CC3=O)[C@H](c3cc(OC)c(OC)c(OC)c3)[C@@H]2C(=O)N2CCC=CC2=O)cc(OC)c1OC (stereo partly specified) [PIPLARTINE DIMER A] | 2.21 µg/mL (≈ 3.48 µM) | 2.49 µg/mL (≈ 3.92 µM) | 3.9 µg/mL (≈ 6.14 µM) | 3.06 µg/mL (≈ 4.82 µM)
2 | COc1cc(/C=C/C(=O)N2CCC=CC2=O)cc2c1OCO2 | 2.57 µg/mL (≈ 8.53 µM) | 2.15 µg/mL (≈ 7.14 µM) | 2.62 µg/mL (≈ 8.7 µM) | 0.43 µg/mL (≈ 1.43 µM)
3 | COc1cc(CCC(=O)N2CCC=CC2=O)cc2c1OCO2 | 5.76 µg/mL (≈ 19 µM) | 3.8 µg/mL (≈ 12.5 µM) | 4.99 µg/mL (≈ 16.5 µM) | 2.21 µg/mL (≈ 7.29 µM)
4 | COc1cc(/C=C/C(=O)N2CCC=CC2=O)cc(OC)c1OC [PIPLARTINE] | 0.6 µg/mL (≈ 1.89 µM) | 0.45 µg/mL (≈ 1.42 µM) | 1.8 µg/mL (≈ 5.67 µM) | 0.9 µg/mL (≈ 2.84 µM)
